The target in data set [1] is T1, PDE2A (NM002599) (Homo sapiens, UniProt O00408).
T1 construct: made in house; host or cells: baculovirus / SF21 insect cells
As to the kind of experiment: Inhibition of recombinant PDE2A (expressed in baculovirus/SF21-cells). It is filed as biochemical. The note with it: recombinant PDE2A, 0.5 μM [3H]-cAMP, 1000 nM cGMP, 37° C., 30 minutes, SPA; read-out: PDE2A IC50. In a few lines:
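Human PDE2A membrane fraction from baculovirus-infected SF21 cells; 0.5 μM [3H]-cAMP with 1000 nM cGMP as activator in 50 mM Tris-HCl/5 mM MgCl2 pH 7.4, 30 min at 37° C, SPA read-out. Non-specific activity measured without cGMP; IC50 by 2-parameter Hill fit.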

The target of data set [2] is T2, PDE10A1 (AB 020593) (Homo sapiens, UniProt Q9Y233).
T2 construct: made in house; host or cells: baculovirus / SF21 insect cells (gene synthesized by Entelechon GmbH)
T2 sequence (Q9Y233 other isoform, or with tags, fused parts or gaps): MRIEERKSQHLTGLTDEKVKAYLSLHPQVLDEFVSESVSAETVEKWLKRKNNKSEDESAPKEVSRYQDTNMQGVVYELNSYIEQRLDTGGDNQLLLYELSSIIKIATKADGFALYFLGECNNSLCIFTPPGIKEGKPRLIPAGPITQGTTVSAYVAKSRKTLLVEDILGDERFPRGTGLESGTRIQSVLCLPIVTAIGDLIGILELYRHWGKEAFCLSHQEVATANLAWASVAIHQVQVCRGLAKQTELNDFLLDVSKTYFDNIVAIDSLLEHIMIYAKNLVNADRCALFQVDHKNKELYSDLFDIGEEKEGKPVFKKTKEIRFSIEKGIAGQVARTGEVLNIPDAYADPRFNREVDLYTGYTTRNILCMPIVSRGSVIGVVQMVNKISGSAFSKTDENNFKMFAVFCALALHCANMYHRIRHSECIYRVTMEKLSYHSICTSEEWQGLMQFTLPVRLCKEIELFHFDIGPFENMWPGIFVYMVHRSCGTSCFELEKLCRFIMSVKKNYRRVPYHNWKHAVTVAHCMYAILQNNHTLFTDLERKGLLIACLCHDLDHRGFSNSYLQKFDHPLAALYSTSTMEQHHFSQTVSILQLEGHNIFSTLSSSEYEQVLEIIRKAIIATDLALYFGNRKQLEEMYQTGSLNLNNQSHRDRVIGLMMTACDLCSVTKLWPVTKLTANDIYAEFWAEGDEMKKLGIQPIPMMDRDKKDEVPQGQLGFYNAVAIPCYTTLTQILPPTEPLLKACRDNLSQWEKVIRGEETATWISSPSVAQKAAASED
As to the kind of experiment: Inhibition of recombinant PDE10A (baculovirus/SF21 system). It is filed as biochemical. The note with it: recombinant cytosolic PDE10A, 0.1 μM [3H]-cAMP, 37° C., 30 minutes, SPA; read-out: PDE10A IC50. In a few lines:
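Cytosolic PDE10A1 expressed in SF21 cells via baculovirus, incubated with 0.1 μM [3H]-cAMP in 50 mM Tris-HCl/5 mM MgCl2, pH 7.4, 30 min at 37 °C. SPA-bead scintillation read-out, with enzyme-free wells as background. IC50 from Hill plot, 2-parameter model.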

What is called IC50 is the concentration at which inhibition is half-maximal. A word on the melting point: it is the temperature of the solid-liquid transition.

Molecules are shown by their SMILES.

T1 sequence (O00408 whole entry): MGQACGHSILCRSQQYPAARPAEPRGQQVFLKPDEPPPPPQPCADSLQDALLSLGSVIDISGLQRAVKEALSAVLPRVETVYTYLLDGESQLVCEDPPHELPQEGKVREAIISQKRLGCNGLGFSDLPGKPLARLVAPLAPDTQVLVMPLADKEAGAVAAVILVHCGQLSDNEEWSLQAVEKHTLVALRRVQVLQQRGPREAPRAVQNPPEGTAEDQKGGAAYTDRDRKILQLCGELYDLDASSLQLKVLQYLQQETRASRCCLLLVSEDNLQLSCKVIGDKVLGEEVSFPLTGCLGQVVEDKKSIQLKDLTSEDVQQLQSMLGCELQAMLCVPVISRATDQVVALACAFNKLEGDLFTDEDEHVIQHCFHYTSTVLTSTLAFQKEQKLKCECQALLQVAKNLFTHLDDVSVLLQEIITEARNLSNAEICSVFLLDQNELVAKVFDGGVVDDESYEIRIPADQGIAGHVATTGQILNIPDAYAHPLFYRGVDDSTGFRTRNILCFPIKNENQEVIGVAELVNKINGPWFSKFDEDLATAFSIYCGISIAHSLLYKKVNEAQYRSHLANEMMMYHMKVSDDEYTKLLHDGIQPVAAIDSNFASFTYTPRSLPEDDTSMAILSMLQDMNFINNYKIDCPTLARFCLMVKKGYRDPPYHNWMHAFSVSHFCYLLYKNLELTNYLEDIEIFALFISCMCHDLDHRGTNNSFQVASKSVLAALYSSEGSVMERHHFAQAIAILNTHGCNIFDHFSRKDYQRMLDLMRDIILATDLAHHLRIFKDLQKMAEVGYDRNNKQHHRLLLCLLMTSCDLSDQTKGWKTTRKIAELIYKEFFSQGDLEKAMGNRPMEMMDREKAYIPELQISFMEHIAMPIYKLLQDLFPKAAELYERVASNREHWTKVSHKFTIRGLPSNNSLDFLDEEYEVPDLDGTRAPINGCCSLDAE

Turning to `CCCc1nc(C)c2nnc3ccc(OC)nc3n12` [Example 1, 8-methoxy-3-methyl-1-propyl-imidazo[5,1-c]-pyrido[2,3-e][1,2,4]triazine], the melting point was in the range of 163 to 165 °C. For the same compound, the IC50 in data set [1] turned out to be 88.8 nM. The IC50 in data set [2] amounted to 102 nM.
Taken in the same sequence, the figures for `CCc1nc(C)c2nnc3ccc(OC)nc3n12` [Example 2, 1-ethyl-8-methoxy-3-methyl-imidazo[5,1-c]pyrido[2,3-e][1,2,4]triazine] were 202 to 203 °C, 399 nM and 297 nM.
Taken in the same sequence, the figures for `CCc1ncc2nnc3ccc(OC)nc3n12` [Example 3, 1-ethyl-8-methoxy-imidazo[5,1-c]pyrido[2,3-e][1,2,4]triazine] were 167 to 168 °C, over 1000 nM and 4460 nM.
For `COc1ccc2nnc3c(C)nc(-c4ccccc4)n3c2n1` [Example 4, 8-methoxy-3-methyl-1-phenyl-imidazo[5,1-c]-pyrido[2,3-e][1,2,4]triazine], in that order: 214 to 217 °C, 89.3 nM and 131 nM.
In turn, `COc1ccc2nnc3c(C)ncn3c2n1` [Example 5, 8-methoxy-3-methyl-imidazo[5,1-c]-pyrido[2,3-e][1,2,4]triazine] returned a melting point of 213 to 214 °C. Further, the IC50 in data set [1] is over 10000 nM. The IC50 in data set [2] was over 1000 nM.
As for `COc1ccc2nnc3c(C)nc(-c4ccc(C(N)=O)c(Cl)c4)n3c2n1` [Example 84, 2-chloro-4-(2-methoxy-7-methylimidazo[5,1-c]pyrido[2,3-e][1,2,4]triazin-9-yl)benzamide], the values for the IC50 in data set [1] and in data set [2] were 423 nM and 158 nM, respectively.
As for `COc1ccc2nnc3c(C)nc(-c4cc(Cl)cc(Cl)c4Cl)n3c2n1` [Example 85, 2-methoxy-7-methyl-9-(2,3,5-trichlorophenyl)imidazo[5,1-c]pyrido[2,3-e][1,2,4]triazine], the results for the IC50 in data set [1] and in data set [2] were 34.5 nM and 145 nM, respectively.
For `COc1ccc2nnc3c(C)nc(-c4c(Cl)cccc4OC)n3c2n1` [Example 86, 9-(2-chloro-6-methoxyphenyl)-2-methoxy-7-methylimidazo[5,1-c]pyrido[2,3-e][1,2,4]triazine], in that order: 12 nM and 54.5 nM.
For `COc1ccc2nnc3c(C)nc(-c4cc(C#N)ccc4Cl)n3c2n1` [Example 87, 4-chloro-3-(2-methoxy-7-methylimidazo[5,1-c]pyrido[2,3-e][1,2,4]triazin-9-yl)benzonitrile], in that order: 29.8 nM and 420 nM.
For the compound `COc1ccc2nnc3c(C)nc(-c4ccc(Cl)cc4Cl)n3c2n1` [Example 88, 9-(2,4-dichlorophenyl)-2-methoxy-7-methylimidazo[5,1-c]pyrido[2,3-e][1,2,4]triazine], the values for the IC50 in data set [1] and in data set [2] were 15.1 nM and 15 nM, respectively.
`COc1ccc(-c2nc(C)c3nnc4ccc(OC)nc4n23)c(Cl)c1` [Example 89, 9-(2-chloro-4-methoxyphenyl)-2-methoxy-7-methylimidazo[5,1-c]pyrido[2,3-e][1,2,4]triazine]: the figures for the IC50 in data set [1] and in data set [2] were 52.6 nM and 62.8 nM, respectively.
For `COc1ccc2nnc3c(C)nc(-c4cccc(Cl)c4Cl)n3c2n1` [Example 90, 9-(2,3-dichlorophenyl)-2-methoxy-7-methylimidazo[5,1-c]pyrido[2,3-e][1,2,4]triazine], the IC50 in data set [1] is 49.3 nM; in data set [2], 41 nM.
In the case of `COc1ccc2nnc3c(C)nc(-c4cccc(F)c4Cl)n3c2n1` [Example 91, 9-(2-chloro-3-fluorophenyl)-2-methoxy-7-methylimidazo[5,1-c]pyrido[2,3-e][1,2,4]triazine], the figures for the IC50 in data set [1] and in data set [2] were 17.2 nM and 11.8 nM, respectively.
For the compound `COc1ccc2nnc3c(C)nc(-c4ccc(Cl)c(Cl)c4)n3c2n1` [Example 92, 9-(3,4-dichlorophenyl)-2-methoxy-7-methylimidazo[5,1-c]pyrido[2,3-e][1,2,4]triazine], the IC50 in data set [1] was determined as 660 nM; in data set [2], 231 nM.
For `COc1ccc2nnc3c(C)nc(-c4cccc(Cl)c4)n3c2n1` [Example 93, 9-(3-chlorophenyl)-2-methoxy-7-methylimidazo[5,1-c]pyrido[2,3-e][1,2,4]triazine], in that order: 45.8 nM and 46.8 nM.
For `COc1ccc2nnc3c(C)nc(-c4cccc(Cl)c4C)n3c2n1` [Example 94, 9-(3-chloro-2-methylphenyl)-2-methoxy-7-methylimidazo[5,1-c]pyrido[2,3-e][1,2,4]triazine], in that order: 89.5 nM and 69.2 nM.
For `COc1ccc2nnc3c(C)nc(-c4ccc(OC)c(Cl)c4)n3c2n1` [Example 95, 9-(3-chloro-4-methoxyphenyl)-2-methoxy-7-methylimidazo[5,1-c]pyrido[2,3-e][1,2,4]triazine], in that order: 772 nM and over 500 nM.
In the case of `COc1ccc2nnc3c(C)nc(-c4ccc(F)c(Cl)c4)n3c2n1` [Example 96, 9-(3-chloro-4-fluorophenyl)-2-methoxy-7-methylimidazo[5,1-c]pyrido[2,3-e][1,2,4]triazine], the IC50 in data set [1] came to 73.7 nM; in data set [2], 216 nM.
Taken in the same sequence, the figures for `COc1ccc2nnc3c(C)nc(-c4cc(Cl)cc(Cl)c4)n3c2n1` [Example 97, 9-(3,5-dichlorophenyl)-2-methoxy-7-methylimidazo[5,1-c]pyrido[2,3-e][1,2,4]triazine] were 460 nM and 329 nM.
For `COc1ccc2nnc3c(C)nc(-c4cc(Cl)ccc4OC)n3c2n1` [Example 98, 9-(5-chloro-2-methoxyphenyl)-2-methoxy-7-methylimidazo[5,1-c]pyrido[2,3-e][1,2,4]triazine], in that order: 62.9 nM and 86.9 nM.
For `COc1ccc2nnc3c(C)nc(-c4cc(Cl)ccc4C(F)(F)F)n3c2n1` [Example 99, 9-[5-chloro-2-(trifluoromethyl)phenyl]-2-methoxy-7-methylimidazo[5,1-c]pyrido[2,3-e][1,2,4]triazine], in that order: 79.6 nM and 732 nM.
Consider `COc1ccc(C)c(-c2nc(C)c3nnc4ccc(OC)nc4n23)c1` [Example 100, 2-methoxy-9-(5-methoxy-2-methylphenyl)-7-methylimidazo[5,1-c]pyrido[2,3-e][1,2,4]triazine], for which the results for the IC50 in data set [1] and in data set [2] were 5.52 nM and 55.6 nM, respectively.
Consider `COc1ccc2nnc3c(C)nc(-c4ccccc4C)n3c2n1` [Example 101, 2-methoxy-7-methyl-9-o-tolylimidazo[5,1-c]pyrido[2,3-e][1,2,4]triazine], for which the IC50 in data set [1] was 15.8 nM; in data set [2], 46.1 nM.
With `COc1ccc2nnc3c(C)nc(-c4ccccc4C(F)(F)F)n3c2n1` [Example 102, 9-[2-(trifluoromethyl)phenyl]-2-methoxy-7-methylimidazo[5,1-c]pyrido[2,3-e][1,2,4]triazine], the IC50 is 48.6 nM in data set [1] and 96.8 nM in data set [2].
Consider `COc1ccc2nnc3c(C)nc(-c4ccccc4C(N)=O)n3c2n1` [Example 103, 2-(2-methoxy-7-methylimidazo[5,1-c]pyrido[2,3-e][1,2,4]triazin-9-yl)benzamide], for which the values for the IC50 in data set [1] and in data set [2] were 806 nM and 1410 nM, respectively.
For `COc1ccc2nnc3c(C)nc(-c4ccccc4Oc4ccccc4)n3c2n1` [Example 105, 8-Methoxy-3-methyl-1-(2-phenoxy-phenyl)-imidazo[5,1-c]pyrido[2,3-e][1,2,4]triazine], the IC50 in data set [1] was 61.7 nM; in data set [2], 817 nM.
Taken in the same sequence, the figures for `COc1ccnc2c1nnc1c(C)nc(-c3cc(Cl)ccc3Cl)n12` [Example 113, 9-(2,5-dichlorophenyl)-4-methoxy-7-methylimidazo[5,1-c]pyrido[2,3-e][1,2,4]triazine] were 171 nM and 3.01 nM.
For `COc1ccnc2c1nnc1c(C)nc(-c3ccncc3C)n12` [Example 114, 4-methoxy-7-methyl-9-(3-methylpyridin-4-yl)imidazo[5,1-c]pyrido[2,3-e][1,2,4]triazine], in that order: 2060 nM and 10.1 nM.
For `COc1ccnc2c1nnc1c(C)nc(-c3cnccc3C)n12` [Example 115, 4-methoxy-7-methyl-9-(4-methylpyridin-3-yl)imidazo[5,1-c]pyrido[2,3-e][1,2,4]triazine], in that order: 1950 nM and 42.4 nM.
As for `COc1ccnc2c1nnc1c(C)nc(-c3cccnc3C)n12` [Example 116, 4-methoxy-7-methyl-9-(2-methylpyridin-3-yl)imidazo[5,1-c]pyrido[2,3-e][1,2,4]triazine], the values for the IC50 in data set [1] and in data set [2] were 1150 nM and 15.1 nM, respectively.
For `Cc1nc(-c2ccccc2Cl)n2c1nnc1ccc(O)nc12` [Example 117, 1-(2-Chloro-phenyl)-8-hydroxy-3-methyl-imidazo[5,1-c]pyrido[2,3-e][1,2,4]triazine], in that order: 3.25 nM and 27.7 nM.
For `Cc1nc(-c2cc(Cl)ccc2Cl)n2c1nnc1ccc(N3CCCC3)nc12` [Example 120, 1-(2,5-Dichloro-phenyl)-3-methyl-8-pyrrolidin-1-yl-imidazo[5,1-c]pyrido[2,3-e][1,2,4]triazine], in that order: 3.24 nM and 48 nM.

The values above are taken from patent publication US20100120762A1, “Triazine derivatives as inhibitors of phosphodiesterases” (WYETH, priority 2008, published 2010).
